Assay results from patent US10544156B2, “Hemi-synthetic trilobine analogs for use as a drug” (PIERRE FABRE MEDICAMENT, priority 2015, dated 2020).
Read-outs that look alike come from different tables or passages of the source.

Target: T1, human C-terminal DNMT3A (623-908a.a.) (Homo sapiens, UniProt Q9Y6K1)
T1 construct: The human C-terminal DNMT3A (623-908a.a.); made in house
Assay: hDNMT3A assay (restriction-based fluorescence assay)
Assay type: biochemical
Details: for inhibition at 10 µM: read-out: hDNMT 3A inhibition, Inhibition (%) 10 μM; for inhibition at 32 µM: read-out: hDNMT 3A inhibition, Inhibition (%) 32 μM
From the text: hDNMT3A enzyme inhibition was adapted from the restriction-based fluorescence assay protocol as described in the literature (Ceccaldi et al. Chem Bio Chem 2011, 12, 1337-1345). Briefly, a 5′-labelled biotin oligonucleotide is hybridized to its complementary strand labelled with 6-carboxyfluorescein at the 3′-end into a 384 well microplate (black Optiplates; Perkin Elmer) pre-coated with avidin. The duplex contains a unique CpG site overlapping with a restriction site of a methylation sensitive restriction enzyme. The human C-terminal DNMT3A (623-908a.a.), produced as described in (Gros et al. Nucl. Acids Res. 2013, 41(19):e185), was added in each well (200 ng/well) and mixed with the chemical compounds at desired concentrations and freshly prepared SAM (20 μM final concentration) to start the reaction in a total volume of 50 μL. After 1 hour incubation at 37° C. each well were washed three times with PBS, Tween-20 0.05%, NaCl (500 mM) and three more times with PBST. Specific fluorescent signals were detected with the methylation-sensitive restriction enzyme HpyCH4IV (NEB) as described and measured on a Perkin Elmer Envision detector. The percentage of inhibition is reported. The formula used to calculate the percentage of inhibition is [(X−Y)/X]×100, where X is the signal determined in the absence of the inhibitor and Y is the signal obtained in the presence of the inhibitor. The concentration at which 50% of efficacy of inhibition is observed (EC50) was determined by analysis of a concentration range of the tested compound in triplicates. The non-linear regression fittings with sigmoidal dose-response (variable slope) were performed with GraphPad Prism 4.03 (GraphPad Software).

[1] = concentration at which 50% of efficacy of inhibition is observed, read-out: EC50 (μM), hDNMT 3A inhibition
[2] = interval line below the EC50 of the same compound, read-out: EC50 (μM), range given

T1 sequence (Q9Y6K1 627-912 limits assumed): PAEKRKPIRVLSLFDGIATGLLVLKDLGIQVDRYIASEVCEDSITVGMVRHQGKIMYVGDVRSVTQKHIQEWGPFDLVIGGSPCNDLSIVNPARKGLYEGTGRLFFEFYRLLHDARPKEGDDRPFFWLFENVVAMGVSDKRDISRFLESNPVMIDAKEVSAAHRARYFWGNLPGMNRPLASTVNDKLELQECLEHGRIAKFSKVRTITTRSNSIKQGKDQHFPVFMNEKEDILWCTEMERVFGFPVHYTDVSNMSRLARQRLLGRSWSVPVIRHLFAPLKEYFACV

Structure (SMILES) | inhibition at 10 µM | inhibition at 32 µM | EC50 [1] | EC50 [2]
COc1ccc2cc1Oc1ccc(cc1)C[C@H]1c3c(cc(OC)c4c3Oc3cc5c(cc3O4)CCN(C)[C@H]5C2)CCN1C(N)=O [Product 11] | 43% | 77% |  | 
COc1ccc2cc1Oc1ccc(cc1)C[C@H]1c3c(cc(OC)c4c3Oc3cc5c(cc3O4)CCN(CCCCn3cnc4c(N)ncnc43)[C@H]5C2)CCN1C [Product 25] | 46% | 72% |  | 
COc1ccc2cc1Oc1ccc(cc1)C[C@H]1c3c(cc(OC)c4c3Oc3cc5c(cc3O4)CCN(C)[C@H]5C2)CCN1C#N [Product 15] | 46% | 50% |  | 
COc1ccc2cc1Oc1ccc(cc1)C[C@H]1c3c(cc(OC)c4c3Oc3cc5c(cc3O4)CCN(C)[C@H]5C2)CCN1CCCn1cnc2c(N)ncnc21 [Product 28] | 18% | 60% |  | 
COc1ccc2cc1Oc1ccc(cc1)C[C@H]1c3c(cc(OC)c4c3Oc3cc5c(cc3O4)CCN(CC#N)[C@H]5C2)CCN1CC#N [Product 21] | 32% | 82% |  | 
COc1ccc2cc1Oc1ccc(cc1)C[C@H]1c3c(cc(OC)c4c3Oc3cc5c(cc3O4)CCN(C)[C@H]5C2)CCN1CCCCn1cnc2c(N)ncnc21 [Product 27] | 21% | 67% |  | 
COc1ccc2cc1Oc1ccc(cc1)C[C@H]1c3c(cc(OC)c4c3Oc3cc5c(cc3O4)CCN(C)[C@H]5C2)CCN1S(C)(=O)=O [Product 13] | 39% | 45% |  | 
CNC(=S)N1CCc2cc(OC)c3c4c2[C@@H]1Cc1ccc(cc1)Oc1cc(ccc1OC)C[C@H]1c2cc(c(cc2CCN1C)O3)O4 [Product 14] | 93% | 96% | 1.91 µM | 1.15 to 3.18 µM
COc1ccc2cc1Oc1ccc(cc1)C[C@H]1c3c(cc(OC)c4c3Oc3cc5c(cc3O4)CCN(C)[C@H]5C2)CCN1C(=O)OCCCCn1cnc2c(N)ncnc21 [Product 18] | 66% | 66% |  | 
COc1ccc2cc1Oc1ccc(cc1)C[C@H]1c3c(cc(OC)c4c3Oc3cc5c(cc3O4)CCN(C)[C@H]5C2)CCN1CCC#N [Product 16] | 56% | 77% |  | 
COc1ccc2cc1Oc1ccc(cc1)C[C@H]1c3c(cc(OC)c4c3Oc3cc5c(cc3O4)CCN(CCCn3cnc4c(N)ncnc43)[C@H]5C2)CCN1C [Product 24] | 42% | 77% |  | 
COc1ccc2cc1Oc1ccc(cc1)C[C@H]1c3c(cc(OC)c4c3Oc3cc5c(cc3O4)CCN(CC#N)[C@H]5C2)CCN1C [Product 20] | 50% | 66% |  | 
COc1ccc2cc1Oc1ccc(cc1)C[C@H]1c3c(cc(OC)c4c3Oc3cc5c(cc3O4)CCN(CCC#N)[C@H]5C2)CCN1C [Product 22] | 60% | 64% |  | 
COc1ccc2cc1Oc1ccc(cc1)C[C@H]1c3c(cc(OC)c4c3Oc3cc5c(cc3O4)CCN(C)[C@H]5C2)CCN1CC#N [Product 17] | 69% | 79% |  | 
COc1ccc2cc1Oc1ccc(cc1)C[C@H]1c3c(cc(OC)c4c3Oc3cc5c(cc3O4)CCN(C)[C@H]5C2)CCN1C(=O)OCCCn1cnc2c(N)ncnc21 [Product 19] | 67% | 71% |  | 
CCN(CC)CCCNC(=S)N1CCc2cc(OC)c3c4c2[C@@H]1Cc1ccc(cc1)Oc1cc(ccc1OC)C[C@H]1c2cc(c(cc2CCN1C)O3)O4 [Product 12] | 78% | 93% | 2.67 to 3.8 µM | 
COc1ccc2cc1Oc1ccc(cc1)CC1c3c(cc(OC)c4c3Oc3cc5c(cc3O4)CCN(C)[C@H]5C2)CCN1C=O (stereo partly shown) [Product 10] | 17% | 72% |  | 

More lines, now with the values ahead:

inhibition at 10 µM | inhibition at 32 µM | EC50 [1] | EC50 [2] | Structure (SMILES)
32% | 87% |  |  | COc1ccc2cc1Oc1ccc(cc1)CC1c3c(cc(OC)c4c3Oc3cc5c(cc3O4)CCN(C)[C@H]5C2)CCN1C(=O)/C=C/CN(C)C (stereo partly shown) [Product 33]
69% | 91% | 2.06 µM | 1.28 to 3.31 µM | CCN(CC)CCCNC(=O)N1CCc2cc3c4cc2[C@@H]1Cc1ccc(OC)c(c1)Oc1ccc(cc1)C[C@H]1c2c(cc(OC)c(c2O4)O3)CCN1C [Product 50]
0% | 32% |  |  | COc1cc2c3c4c1Oc1cc5c(cc1O4)[C@H](Cc1ccc(OS(=O)(=O)C(F)(F)F)c(c1)Oc1ccc(cc1)C[C@@H]3N(C)CC2)N(C)CC5 [Product 54]
60% | 75% | 6.1 µM | 3.72 to 10 µM | CCN(CC)CCCNC(=O)N1CCc2cc(OC)c3c4c2[C@@H]1Cc1ccc(cc1)Oc1cc(ccc1OC)C[C@H]1c2cc(c(cc2CCN1C)O3)O4 [Product 49]
2% | 69% |  |  | CNC(=O)N1CCc2cc(OC)c3c4c2[C@@H]1Cc1ccc(cc1)Oc1cc(ccc1OC)C[C@@H]1NCCc2cc(c(cc21)O4)O3 [Product 51]
31% | 73% |  |  | CNC(=O)N1CCc2cc3c4cc2[C@@H]1Cc1ccc(OC)c(c1)Oc1ccc(cc1)C[C@H]1c2c(cc(OC)c(c2O4)O3)CCN1C [Product 45]
66% | 88% | 4.19 to 9.36 µM |  | COc1ccc2cc1Oc1ccc(cc1)CC1c3c(cc(OC)c4c3Oc3cc5c(cc3O4)CCN(C)[C@H]5C2)CCN1C(=O)C1CCC(CN2C(=O)C=CC2=O)CC1 (stereo partly shown) [Product 30]
24% | 49% |  |  | CNC(=O)N1CCc2cc3c4cc2[C@@H]1Cc1ccc(OC)c(c1)Oc1ccc(cc1)C[C@H]1c2c(cc(OC)c(c2O4)O3)CCN1C(=O)NC [Product 43]
10% | 40% |  |  | CNC(=S)N1CCc2cc3c4cc2[C@@H]1Cc1ccc(OC)c(c1)Oc1ccc(cc1)C[C@H]1c2c(cc(OC)c(c2O4)O3)CCN1C(=S)NC [Product 47]
43% | 79% |  |  | C=CC(=O)N1CCc2cc(OC)c3c4c2C1Cc1ccc(cc1)Oc1cc(ccc1OC)C[C@H]1c2cc(c(cc2CCN1C)O3)O4 (stereo partly shown) [Product 31]
57% | 82% | 5.34 to 6.87 µM |  | COc1ccc2cc1Oc1ccc(cc1)CC1c3c(cc(OC)c4c3Oc3cc5c(cc3O4)CCN(C)[C@H]5C2)CCN1C(=O)CCCl (stereo partly shown) [Product 32]
7% | 52% |  |  | CNC(=S)N1CCc2cc3c4cc2[C@@H]1Cc1ccc(OC)c(c1)Oc1ccc(cc1)C[C@H]1c2c(cc(OC)c(c2O4)O3)CCN1C [Product 46]
